In assay [1] the target is Human norepinephrine transporter (NET) (Homo sapiens, UniProt P23975). The assay can be described thus: Binding assay to human norepinephrine transporter (NET). As to conditions: expressed as Ki; [3H]-Nisoxetin, human NET enriched membranes. As to the method:
Binding Assay to Human Norepinephrine Transporter (NET).
Human norepinephrine transporter (NET) enriched membranes (5 μg) were incubated with 5 nM of radiolabeled [3H]-Nisoxetin in assay buffer containing 50 mM Tris-HCl, 120 mM NaCl, 5 mM KCl, pH 7.4.
(§1) NSB (non specific binding) was measured by adding 10 μM of desipramine. The binding of the test compound was measured at five different concentrations. After 60 min incubation at 4° C., binding reaction was terminated by filtering through Multiscreen GF/C (Millipore) presoaked in 0.5% polyethyleneimine in Vacuum Manifold Station, followed by 3 washes with ice-cold filtration buffer containing 50 mM Tris-HCl, 0.9% NaCl, pH 7.4.
Filter plates were dried at 60° C. for 1 hour and 30 μL of scintillation cocktail were added to each well before radioactivity reading.
Readings were performed in a Trilux 1450 Microbeta radioactive counter (Perkin Elmer).

Assay [2] concerns the target Human α2δ−1 subunit of Cav2.2 calcium channel (Homo sapiens, UniProt P54289). The assay can be described thus: Human α2δ−1 subunit of Cav2.2 calcium channel assay. To be noted: expressed as Ki; [3H]-Gabapentin, human α2δ−1 enriched membranes; read-out: Binding α2δ-1. As to the method: as §1, with “Human α2δ−1 Subunit of Cav2.2 Calcium Channel Assay Human α2δ−1 enriched membranes (2.5 μg) were incubated with 15 nM of radiolabeled [3H]-Gabapentin in assay buffer containing Hepes-KOH 10 mM, pH 7.4. NSB” for “NSB”, “pregabalin.” for “of desipramine.”, “27°” for “4°”, “Tris-HCl,” for “Tris-HCl, 0.9% NaCl,”
Filter plates were dried at 60° C. for 1 hour and 30 μL of scintillation cocktail were added to each well before radioactivity reading. Readings were performed in a Trilux 1450 Microbeta radioactive counter (Perkin Elmer).

Human α2δ−1 subunit of Cav2.2 calcium channel, sequence (P54289 25-1103): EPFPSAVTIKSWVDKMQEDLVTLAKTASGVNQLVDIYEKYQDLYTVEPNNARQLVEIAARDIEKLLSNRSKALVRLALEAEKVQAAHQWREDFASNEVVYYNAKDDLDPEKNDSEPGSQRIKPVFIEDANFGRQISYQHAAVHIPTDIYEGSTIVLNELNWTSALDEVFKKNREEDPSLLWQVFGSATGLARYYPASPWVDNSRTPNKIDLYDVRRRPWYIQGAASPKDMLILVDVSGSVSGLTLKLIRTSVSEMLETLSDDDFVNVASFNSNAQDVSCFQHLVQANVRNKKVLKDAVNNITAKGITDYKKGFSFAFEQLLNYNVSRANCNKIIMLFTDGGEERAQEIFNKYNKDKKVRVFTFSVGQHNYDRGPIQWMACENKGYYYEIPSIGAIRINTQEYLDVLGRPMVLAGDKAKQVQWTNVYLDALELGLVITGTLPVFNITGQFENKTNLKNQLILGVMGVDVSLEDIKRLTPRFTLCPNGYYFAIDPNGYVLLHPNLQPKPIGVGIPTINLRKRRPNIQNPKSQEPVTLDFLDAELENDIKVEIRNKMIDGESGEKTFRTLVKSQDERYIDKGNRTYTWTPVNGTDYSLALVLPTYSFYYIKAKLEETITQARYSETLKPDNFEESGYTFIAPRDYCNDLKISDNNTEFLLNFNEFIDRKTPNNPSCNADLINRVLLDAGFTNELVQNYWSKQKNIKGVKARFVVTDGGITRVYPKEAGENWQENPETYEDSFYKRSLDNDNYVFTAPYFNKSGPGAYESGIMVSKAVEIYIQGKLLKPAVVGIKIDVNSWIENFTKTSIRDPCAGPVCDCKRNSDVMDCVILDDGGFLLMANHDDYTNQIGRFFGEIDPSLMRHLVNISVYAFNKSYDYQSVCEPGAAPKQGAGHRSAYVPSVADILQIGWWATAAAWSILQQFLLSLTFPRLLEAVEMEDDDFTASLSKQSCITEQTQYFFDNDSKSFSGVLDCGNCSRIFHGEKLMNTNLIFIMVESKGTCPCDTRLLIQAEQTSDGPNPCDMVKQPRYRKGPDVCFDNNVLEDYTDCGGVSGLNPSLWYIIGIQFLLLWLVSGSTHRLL
Human norepinephrine transporter (NET), sequence (P23975 whole entry): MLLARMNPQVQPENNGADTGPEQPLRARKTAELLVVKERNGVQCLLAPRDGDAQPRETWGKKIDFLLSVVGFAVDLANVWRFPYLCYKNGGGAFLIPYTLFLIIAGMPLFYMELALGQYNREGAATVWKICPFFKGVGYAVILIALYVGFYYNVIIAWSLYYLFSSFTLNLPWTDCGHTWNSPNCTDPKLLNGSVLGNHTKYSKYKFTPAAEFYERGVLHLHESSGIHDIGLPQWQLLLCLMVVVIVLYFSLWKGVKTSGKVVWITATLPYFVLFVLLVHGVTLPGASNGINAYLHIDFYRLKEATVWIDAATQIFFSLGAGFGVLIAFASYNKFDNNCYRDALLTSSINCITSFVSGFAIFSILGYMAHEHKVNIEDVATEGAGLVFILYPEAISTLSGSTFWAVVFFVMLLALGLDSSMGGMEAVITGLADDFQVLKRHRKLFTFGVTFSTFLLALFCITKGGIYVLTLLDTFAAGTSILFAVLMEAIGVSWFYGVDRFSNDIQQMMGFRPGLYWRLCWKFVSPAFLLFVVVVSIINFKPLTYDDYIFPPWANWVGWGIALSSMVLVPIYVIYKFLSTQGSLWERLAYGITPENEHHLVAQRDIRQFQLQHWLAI

On to `CCOc1ccc(-n2nc3c(N4CC[C@H](NCc5ccncc5)C4)nnc(C)c3c2C)c(F)c1` [Example 12, (S)-1-(2-(4-ethoxy-2-fluorophenyl)-3,4-dimethyl-2H-pyrazolo[3,4-d]pyridazin-7-yl)-N-(pyridin-4-ylmethyl)pyrrolidin-3-amine], for which the Ki is at least 1000 nM in assay [1] and under 500 nM in assay [2].
Taken in the same sequence, the figures for `CCOc1ccc(-n2nc3c(N4CC[C@H](NCc5ccccn5)C4)nnc(C)c3c2C)c(F)c1` [Example 4, (S)-1-(2-(4-ethoxy-2-fluorophenyl)-3,4-dimethyl-2H-pyrazolo[3,4-d]pyridazin-7-yl)-N-(pyridin-2-ylmethyl)pyrrolidin-3-amine] were at least 1000 nM and under 500 nM.
Taken in the same sequence, the figures for `CCOc1ccc(-n2nc3c(N4CC[C@H](NC(=O)Cc5ccccn5)C4)nnc(C)c3c2C)c(F)c1` [Example 18, (S)-N-(1-(2-(4-Ethoxy-2-fluorophenyl)-3,4-dimethyl-2H-pyrazolo[3,4-d]pyridazin-7-yl)pyrrolidin-3-yl)-2-(pyridin-2-yl)acetamide] were at least 1000 nM and under 500 nM.
Taken in the same sequence, the figures for `CCOc1ccc(-n2nc3c(N4CC[C@H](NCc5cccnc5)C4)nnc(C)c3c2C)c(F)c1` [Example 11, (S)-1-(2-(4-ethoxy-2-fluorophenyl)-3,4-dimethyl-2H-pyrazolo[3,4-d]pyridazin-7-yl)-N-(pyridin-3-ylmethyl)pyrrolidin-3-amine] were 500 to 1000 nM and under 500 nM.
As to `CCOc1ccc(-n2nc3c(N4CC[C@H](NC(=O)Cc5cccnc5)C4)nnc(C)c3c2C)c(F)c1` [Example 19, (S)-N-(1-(2-(4-ethoxy-2-fluorophenyl)-3,4-dimethyl-2H-pyrazolo[3,4-d]pyridazin-7-yl)pyrrolidin-3-yl)-2-(pyridin-3-yl)acetamide], the Ki was at least 1000 nM in assay [1] and under 500 nM in assay [2].
Taken in the same sequence, the figures for `CCOc1ccc(-n2nc3c(N4CC[C@H](NCc5ncccc5F)C4)nnc(C)c3c2C)c(F)c1` [Example 13, (S)-1-(2-(4-ethoxy-2-fluorophenyl)-3,4-dimethyl-2H-pyrazolo[3,4-d]pyridazin-7-yl)-N-((3-fluoropyridin-2-yl)methyl)pyrrolidin-3-amine] were 500 to 1000 nM and under 500 nM.
Taken in the same sequence, the figures for `CCOc1ccc(-n2nc3c(N4CC[C@H](N(C)Cc5ccccc5)C4)nnc(C)c3c2C)c(F)c1` [Example 16, (S)-N-benzyl-1-(2-(4-ethoxy-2-fluorophenyl)-3,4-dimethyl-2H-pyrazolo[3,4-d]pyridazin-7-yl)-N-methylpyrrolidin-3-amine] were 500 to 1000 nM and under 500 nM.
On the same counts, the results for `CCOc1ccc(-n2nc3c(N4CC[C@H](NCCc5ccccc5)C4)nnc(C)c3c2C)c(F)c1` [Example 2, (S)-1-(2-(4-ethoxy-2-fluorophenyl)-3,4-dimethyl-2H-pyrazolo[3,4-d]pyridazin-7-yl)-N-phenethylpyrrolidin-3-amine] are 500 to 1000 nM and under 500 nM.
Turning to `CCOc1ccc(-n2nc3c(N4CCC[C@H](N(C)C)C4)nnc(C)c3c2C)c(F)c1` [Example 17, (S)-1-(2-(4-ethoxy-2-fluorophenyl)-3,4-dimethyl-2H-pyrazolo[3,4-d]pyridazin-7-yl)-N,N-dimethylpiperidin-3-amine], the Ki is at least 1000 nM in assay [1] and 500 to 5000 nM in assay [2].
On the same counts, the results for `CCOc1ccc(-n2nc3c(N4CC[C@@H](NCc5cccc(O)c5)C4)nnc(C)c3c2C)c(F)c1` [Example 8, (R)-3-(((1-(2-(4-ethoxy-2-fluorophenyl)-3,4-dimethyl-2H-pyrazolo[3,4-d]pyridazin-7-yl)pyrrolidin-3-yl)amino)methyl)phenol] are 100 to 500 nM and under 500 nM.
On the same counts, the results for `CCOc1ccc(-n2nc3c(N4CC[C@H](NCc5cncc(F)c5)C4)nnc(C)c3c2C)c(F)c1` [Example 14, (S)-1-(2-(4-ethoxy-2-fluorophenyl)-3,4-dimethyl-2H-pyrazolo[3,4-d]pyridazin-7-yl)-N-((5-fluoropyridin-3-yl)methyl)pyrrolidin-3-amine] are at least 1000 nM and at least 5000 nM.
With `CCOc1ccc(-n2nc3c(N4CC[C@@H](NCc5ccccc5)C4)nnc(C)c3c2C)c(F)c1` [Example 10, (R)-N-benzyl-1-(2-(4-ethoxy-2-fluorophenyl)-3,4-dimethyl-2H-pyrazolo[3,4-d]pyridazin-7-yl)pyrrolidin-3-amine], the Ki is 100 to 500 nM in assay [1] and under 500 nM in assay [2].
Taken in the same sequence, the figures for `CCOc1ccc(-n2nc3c(N4CC[C@H](NCc5cccc(OC)c5)C4)nnc(C)c3c2C)c(F)c1` [Example 6, (S)-1-(2-(4-ethoxy-2-fluorophenyl)-3,4-dimethyl-2H-pyrazolo[3,4-d]pyridazin-7-yl)-N-(3-methoxybenzyl)pyrrolidin-3-amine] were 500 to 1000 nM and under 500 nM.
Taken in the same sequence, the figures for `CCOc1ccc(-n2nc3c(N4CC[C@H](NCCc5ccc(F)cc5)C4)nnc(C)c3c2C)c(F)c1` [Example 5, (S)-1-(2-(4-ethoxy-2-fluorophenyl)-3,4-dimethyl-2H-pyrazolo[3,4-d]pyridazin-7-yl)-N-(4-fluorophenethyl)pyrrolidin-3-amine] were at least 1000 nM and under 500 nM.
Turning to `CCOc1ccc(-n2nc3c(N4CC[C@H](NCc5ccccc5O)C4)nnc(C)c3c2C)c(F)c1` [Example 9, (S)-2-(((1-(2-(4-ethoxy-2-fluorophenyl)-3,4-dimethyl-2H-pyrazolo[3,4-d]pyridazin-7-yl)pyrrolidin-3-yl)amino)methyl)phenol], the Ki is 100 to 500 nM in assay [1] and under 500 nM in assay [2].
Taken in the same sequence, the figures for `CCOc1ccc(-n2nc3c(N4CC[C@H](NCc5ccccc5)C4)nnc(C)c3c2C)c(F)c1` [Example 1, (S)-N-Benzyl-1-(2-(4-ethoxy-2-fluorophenyl)-3,4-dimethyl-2H-pyrazolo[3,4-d]pyridazin-7-yl)pyrrolidin-3-amine] were 100 to 500 nM and under 500 nM.
Regarding `CCOc1ccc(-n2nc3c(N4CC[C@H](NCc5cccc(O)c5)C4)nnc(C)c3c2C)c(F)c1` [Example 3, (S)-3-(((1-(2-(4-ethoxy-2-fluorophenyl)-3,4-dimethyl-2H-pyrazolo[3,4-d]pyridazin-7-yl)pyrrolidin-3-yl)amino)methyl)phenol], the values for the Ki in assay [1] and in assay [2] were 100 to 500 nM and under 500 nM, respectively.
With `CCOc1ccc(-n2nc3c(N4CC[C@H](NCc5ccc(F)c(F)c5)C4)nnc(C)c3c2C)c(F)c1` [Example 7, (S)-N-(3,4-difluorobenzyl)-1-(2-(4-ethoxy-2-fluorophenyl)-3,4-dimethyl-2H-pyrazolo[3,4-d]pyridazin-7-yl)pyrrolidin-3-amine], the Ki in assay [1] was under 100 nM; in assay [2], under 500 nM.
On the same counts, the results for `CCOc1ccc(-n2nc3c(N4CC[C@H](N(C)Cc5cccc(O)c5)C4)nnc(C)c3c2C)c(F)c1` [Example 15, (S)-3-(((1-(2-(4-Ethoxy-2-fluorophenyl)-3,4-dimethyl-2H-pyrazolo[3,4-d]pyridazin-7-yl)pyrrolidin-3-yl)(methyl)amino)methyl)phenol] are at least 1000 nM and under 500 nM.

The values above are taken from US20200062767A1, “SUBSTITUTED PYRROLIDINYL AND PIPERIDINYL PYRAZOLOPYRIDAZINE DERIVATIVES HAVING MULTIMODAL ACTIVITY AGAINST PAIN” (ESTEVE PHARMACEUTICALS, S.A., priority 2017, published 2020).
